# In patent US20130165368A1, “ANTIMICROBIAL COMPOUNDS” (priority 2010, published 2013):
# Like-named read-outs stand apart in the source and are kept apart here.
# Experiments:
# Type in all cases: cell-based
# Staphylococcus aureus = assay: MIC agar dilution, micro-organism 13 (6571); conditions: Staphylococcus aureus, Staphylococcus aureus 6571, read-out: MIC
# Method in brief: (§1)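 Agar dilution in Isosensitest/CCEY agar with egg yolk and lysed horse blood; compounds as aqueous emulsions (myristyl and lauryl alcohol with 1-methyl-2-pyrrolidone and Tween 20). 1 µL spots of 1/15-diluted 0.5 McFarland suspensions, 37 °C aerobic, read at 22 and 48 h; MIC (mmol/L) is lowest concentration giving <10 colonies.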
# MRSA FIN 54511 (E6) = assay: MIC agar dilution, MRSA strain 32; conditions: Staphylococcus aureus
# Experimental: (§2) Molar equivalent concentrations were used to allow comparison between compounds of differing molecular mass. Due to weighing difficulties, any compound in solid form was melted in a water bath prior to dilution. To make ten-times strength concentrations, which takes into account agar dilution, 0.0352 mmol of each compound was weighed into plastic universal bottles and 4 mL of sterile distilled water (SDW) was added. To produce a homogenous emulsion the universals were vortexed; once achieved the emulsions were serial diluted by adding 2 mL to 2 mL of SDW.
# (§3) For every 100 mL of Isosensitest agar (IST) (CM0471; Oxoid, Basingstoke, England), 3.1 g of the IST powder was added to 100 mL SDW (as per manufacturer's instructions) and sterilised for 15 minutes at 121° C. Once sterilised, the molten agar was cooled to 50° C. in a water-bath. Subsequently 4.8 g of CCEY powder (BC2160; Bioconnections, Wetherby, England), also known as Brazier's medium, was added to 100 mL SDW for every 100 mL of agar needed. This was then sterilised for 15 minutes at 121° C. Once sterilised the molten agar was cooled to 50° C. in a water-bath and 4 mL of egg-yolk emulsion (S2073; TCS Biosciences Ltd, Buckingham, United Kingdom) and 1 mL of lysed defibrinated horse blood (HB035; TCS Biosciences Ltd, Buckingham, United Kingdom) were also added for every 100 mL needed. Horse blood lysis is achieved by dilution to half concentration with SDW; when fully lysed the mixture will turn dark red in colour.
# (§4) 18 mL agar was added to each universal and then poured into sterile Petri dishes. This step creates a 1/10 dilution resulting in agar plates of the required strength. Control plates for each set of strains were created by adding 18 mL of agar to 2 mL of SDW.
# (§5) Suspensions of each bacterial species were prepared with a density equal to that of a 0.5 McFarland standard using a densitometer. All suspensions were made using sterile distilled water and fresh 18-20 hour cultures. As a 0.5 McFarland standard contains 1.5×10^8 CFU/mL and the multipoint inoculators applies 1 μL spots of liquid, each bacterial suspension was diluted 1/15 (20 μL suspension to 280 μL sterile distilled water).
# (§6) Bacterial suspensions were prepared from fresh 18-24 hour cultures as previously described. 1 μL of each strain was inoculated onto all 100 agar plates containing a different chemical concentration and the 2 control plates. This was done using a multipoint inoculator which inoculates 20 strains per plate. All plates were incubated for 22 hours at 37° C. in aerobic conditions.
# (§7) Each plate was examined for bacterial growth after 22 and 48 hours, with each being incubated in between examinations. A positive result was recorded as growth of ≧10 colonies. A negative result was recorded as growth of <10 colonies as this is equivalent to 99.9% inhibition. The lowest concentration of chemical that inhibited growth was recorded as the MIC. The results are recorded in Table IV below, where the numbers are quoted in mmol/L.
# (§8) Given the positive performance of the ethoxylates of lauryl alcohol in reducing the MIC for a number of the micro-organisms tested, further MIC testing of Laureth-1 [C12E1] through to Laureth-8 [C12E8] was conducted on each of the following: • 10 strains of vancomycin-resistant enterococci (VRE)—listed in Table V below; and • 20 strains of methicillin-resistant Staphylococcus aureus (MRSA)—listed in Table VI.
# (§9) The alkanol, alkanol derivatives, agar plates, and inocula were all prepared in the same way as described above.
# (§10) The plates were examined in the same manner as described above and the results are recorded in Table VII below, where the numbers are quoted in mmol/L.
# MRSA FRA 920 = assay: MIC agar dilution, MRSA strain 38; conditions: Staphylococcus aureus
# Experimental: as §2, §3, §4, §5, §6, §7, §8, §9, §10
# [1] = system: Enterococcus faecium (VRE) MB 3137; assay: MIC agar dilution, VRE strain 26
# Experimental: as §2, §3, §4, §5, §6, §7, §8, §9, §10
# [2] = system: Enterococcus faecium (VRE) NCTC 12952; assay: MIC agar dilution, VRE strain 30
# Experimental: as §2, §3, §4, §5, §6, §7, §8, §9, §10
# [3] = system: Enterococcus faecalis (VRE) PHLS URINE 2000; assay: MIC agar dilution, VRE strain 21
# Experimental: as §2, §3, §4, §5, §6, §7, §8, §9, §10
# [4] = system: MRSA GER 1966/97 (Hanover IIIc); assay: MIC agar dilution, MRSA strain 36; conditions: Staphylococcus aureus
# Experimental: as §2, §3, §4, §5, §6, §7, §8, §9, §10
# Escherichia coli = assay: MIC agar dilution, micro-organism 1 (10418); conditions: Escherichia coli 10418, read-out: MIC
# Method in brief: as §1
# Bacillus subtilis = assay: MIC agar dilution, micro-organism 18 (9372); conditions: Bacillus subtilis 9372, read-out: MIC
# Method in brief: as §1
# MRSA NCTC 11939 = assay: MIC agar dilution, MRSA strain 50; conditions: Staphylococcus aureus, MRSA strain 50 NCTC 11939
# Experimental: as §2, §3, §4, §5, §6, §7, §8, §9, §10
# MRSA BEL 97598 = assay: MIC agar dilution, MRSA strain 34; conditions: Staphylococcus aureus
# Experimental: as §2, §3, §4, §5, §6, §7, §8, §9, §10
# MRSA EMRSA 15 1758/98 = assay: MIC agar dilution, MRSA strain 43; conditions: Staphylococcus aureus
# Experimental: as §2, §3, §4, §5, §6, §7, §8, §9, §10
# MRSA EMRSA 16 18200/95 = assay: MIC agar dilution, MRSA strain 48; conditions: Staphylococcus aureus
# Experimental: as §2, §3, §4, §5, §6, §7, §8, §9, §10
Structure (SMILES),"MIC (Staphylococcus aureus; 22 h, 22 hrs) [µM]","MIC (Staphylococcus aureus; 48 h, 48 hrs) [µM]",MIC (MRSA FIN 54511 (E6); 22 hrs) [µM],MIC (MRSA FIN 54511 (E6); 48 hrs) [µM],MIC (MRSA FRA 920; 22 hrs) [µM],MIC (MRSA FRA 920; 48 hrs) [µM],MIC ([1]; 22 hrs) [µM],MIC ([1]; 48 hrs) [µM],MIC ([2]; 22 hrs) [µM],MIC ([2]; 48 hrs) [µM],MIC ([3]; 22 hrs) [µM],MIC ([3]; 48 hrs) [µM],MIC ([4]; 22 hrs) [µM],MIC ([4]; 48 hrs) [µM],MIC (Escherichia coli; 22 hrs) [µM],MIC (Escherichia coli; 48 hrs) [µM],MIC (Bacillus subtilis; 22 hrs) [µM],MIC (Bacillus subtilis; 48 hrs) [µM],MIC (MRSA NCTC 11939; 22 hrs) [µM],MIC (MRSA NCTC 11939; 48 hrs) [µM],other results
"CCCCCCCCCCCCOCCOCCOCCO [L3, Triethylene Glycol Monododecyl Ether]",≤ 50,≤ 50,220,220,55,55,880,> 880,220,220,220,220,55,55,> 880,> 880,110,110,55,55,MIC (MRSA BEL 97598; 22 hrs): 110 µM; MIC (MRSA BEL 97598; 48 hrs): 110 µM; MIC (MRSA EMRSA 15 1758/98; 22 hrs): 55 µM; MIC (MRSA EMRSA 15 1758/98; 48 hrs): 110 µM; MIC (MRSA EMRSA 16 18200/95; 22 hrs): 110 µM; MIC (MRSA EMRSA 16 18200/95; 48 hrs): 110 µM
"CCCCCCCCCCCCOCCOCCOCCOCCO [L4, Tetraethylene Glycol Monododecyl Ether]",110,110,110,110,55,55,880,> 880,440,440,110,110,55,55,> 880,> 880,110,110,55,55,MIC (MRSA BEL 97598; 22 hrs): 110 µM; MIC (MRSA BEL 97598; 48 hrs): 110 µM; MIC (MRSA EMRSA 15 1758/98; 22 hrs): 55 µM; MIC (MRSA EMRSA 15 1758/98; 48 hrs): 55 µM; MIC (MRSA EMRSA 16 18200/95; 22 hrs): 55 µM; MIC (MRSA EMRSA 16 18200/95; 48 hrs): 55 µM
